According to patent US20020128464A1, “Method of finding modulators of enzymes of the carotenoid biosynthetic pathway” (priority 2000, published 2002):

Assays:
tobacco plants = experiment: Carotenoid content (phytoene accumulation) of treated tobacco plants, HPLC; type: in vivo, Nicotiana tabacum; conditions: tobacco plants treated with norflurazon; comparator for PDS antisense lines
PDS = conditions: in vitro (Trebst, 1997); cited from earlier work
Erwinia uredovora PSY = Erwinia uredovora PSY (Pantoea ananas, UniProt P21683); conditions: overexpressed Erwinia uredovora PSY (Neudert, 1998); read-out: pI valve (inhibition of phytoene synthase); cited from earlier work
Erwinia uredovora PSY, sequence (P21683 whole entry): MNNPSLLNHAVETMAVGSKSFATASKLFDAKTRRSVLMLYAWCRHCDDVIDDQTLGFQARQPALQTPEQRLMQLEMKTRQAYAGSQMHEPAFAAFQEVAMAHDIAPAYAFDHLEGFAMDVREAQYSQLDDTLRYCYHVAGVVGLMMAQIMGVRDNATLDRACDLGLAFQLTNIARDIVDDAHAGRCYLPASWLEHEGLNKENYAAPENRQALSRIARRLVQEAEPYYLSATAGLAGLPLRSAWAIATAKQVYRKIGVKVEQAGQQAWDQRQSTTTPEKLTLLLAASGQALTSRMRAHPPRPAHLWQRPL

With `CNc1cnn(-c2cccc(C(F)(F)F)c2)c(=O)c1Cl` [norflurazon] as the compound, how does the accumulation of phytoene (tobacco plants) read?
The accumulation of phytoene was “very high accumulation of phytoene”.

And the “photosystem II activity following inhibition of PDS” value (PDS)?
Its value is “loss of photosystem II activity”.

For fluridone, which “photosystem II activity following inhibition of PDS” value (PDS) is on record?
Its value is “loss of photosystem II activity”.

Which IC50 (Erwinia uredovora PSY) does the source give for `C=C(CC[C@]12O[C@H](C(=O)O)[C@@](O)(C(=O)O)[C@](C(=O)O)(O1)[C@H](OC(=O)/C=C/[C@@H](C)C[C@@H](C)CC)[C@H]2O)[C@@H](OC(C)=O)[C@H](C)Cc1ccccc1` [squalestatin] here?
The IC50 was 15 µM.
